{"source": "patent US20240109855A1", "about": "“ANTI-QUORUM SENSING, ANTI-BIOFILM, AND INFLAMMATION ATTENUATING COMPOUNDS, COMPOSITIONS, AND METHODS OF USING SAME” (priority 2021, published 2024)", "test_system": "P. aeruginosa biofilm", "experiment": "P. aeruginosa biofilm formation under flow conditions (CLSM, IMARIS)", "type": "cell-based", "method": "FIGS. 15A-15B include fluorescent micrographs and a vertical bar graph showing that Pl-18 inhibits P. aeruginosa biofilm formation. The biofilm was grown under continuous flow conditions for 72 hr with 10 μM, 40 μM PL-18 or 0.04% DMSO. CLSM images visualize viable bacteria stained green and dead bacteria red using the BacLight® Dead/Live Kit. Scanned areas were 318 μm×318 μm. (15A) IMARIS images. Scale bar is 50 μm. (15B) A graph showing the mean±SD of the biofilm volume generated from three independent sets of flow-cell experiments. Two-way ANOVA Bonferroni's multiple comparisons test, 95% confidence interval (p-values ***≤0.0002).\nThe anti-biofilm activity of PL-18 was tested in flow conditions for 72 hours. The biofilm was visualized by CLSM and quantified using the IMARIS software."}
{"smiles": "COc1cc(/C=C/C(=O)N2CCC=CC2=O)cc(O)c1O", "note": "[PL-18, Dihydroxy piperlongumine]", "values": [{"measurement": "inhibition at 40 µM", "setting": "Pseudomonas aeruginosa, 72 h, read-out: Inhibition of P. aeruginosa biofilm formation", "value": 85, "unit": "%"}, {"measurement": "Attenuation of biofilm formation, in words", "setting": "running text", "value": "effectively attenuate"}]}
